This test has as its target KRAS G12C (GMPPNP-loaded) and cRAF (Ras-binding domain) interaction (Homo sapiens (Human), UniProt P01116, C118S/C51S/C80L/G12C). The experiment in a line: Inhibition of KRAS G12C and cRAF binding (AlphaScreen). Conditions: KRAS G12C loaded with GMPPNP, cRaf RBD, 2 hours preincubation; read-out: Raf-1 RBD K-Ras IC50. The method, then: Compounds were diluted in 100% DMSO and each compound concentration was spotted at 200 nl/well onto low volume, white 384 well plates. […] KRAS G12C was preloaded with the GTP analogue Guanosine 5′-[β,γ-imido]triphosphate (GMPPNP). The KRAS G12C was diluted in 25 mM Hepes, pH 7.4, 150 mM NaCl, 5 mM MgCl2, 0.01% TritonX-100 and 10 μM GMPPNP and added at 10 ul/well to compound-spotted plates resulting in a DMSO concentration of 2%. Plates were incubated for 2 hours. A mixture of RBD and the AlphaScreen streptavidin donor and glutathione acceptor beads diluted in 25 mM Hepes, pH 7.4, 150 mM NaCl, 5 mM MgCl2, 0.01% TritonX-100 and 2% DMSO was then added at 10 ul/well and incubated for 60-90 minutes before the samples were read for emission at 570 nm after excitation of the donor beads at 680 nm. All incubations were performed at room temperature. The final top compound concentration was 50 μM with 1:3 titrations for 10-point dose response curves. […] IC50S were determined using nonlinear regression fit of [inhibitor] vs. response (4 parameters). […]
In general terms: Bead proximity is the source of the signal in Alpha formats.

pIC50: −log10 of the molar value. Where only a bound is given, the exact number is not on record here.

By pIC50 is commonly meant −log10 of the IC50, conventionally taken in molar units.

KRAS G12C (GMPPNP-loaded) and cRAF (Ras-binding domain) interaction, sequence (P01116 other isoform, or with tags, fused parts or gaps G12C/C51S/C80L/C118S): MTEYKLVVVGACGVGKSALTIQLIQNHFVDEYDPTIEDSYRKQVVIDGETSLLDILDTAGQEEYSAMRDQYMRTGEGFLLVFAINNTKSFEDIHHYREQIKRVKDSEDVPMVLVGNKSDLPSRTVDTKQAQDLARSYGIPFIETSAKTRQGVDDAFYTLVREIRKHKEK

In the case of `N#CC[C@H]1CN(c2nc(OC[C@@]34CCCN3C[C@H](F)C4)nc3c(F)c(-c4cccc5cccc(Cl)c45)ncc23)CCN1C(=O)/C=C/CN1CCn2ccnc2C1` [Compound 262], the pIC50 is 7.00 to 8.00.

`Cc1c(F)ccc2c(-c3ncc4c(N5CCN(C(=O)/C=C/CN6[C@@H]7CC[C@H]6COC7)[C@@H](CC#N)C5)nc(OC[C@@]56CCCN5C[C@H](F)C6)nc4c3F)cccc12` [Compound 251]: the pIC50 is 6.30 to 7.00.

In the case of `Cc1c(F)ccc2c(-c3ncc4c(N5CCN(C(=O)/C=C/CN6CC7CC(C6)O7)[C@@H](CC#N)C5)nc(OC[C@@]56CCCN5C[C@H](F)C6)nc4c3F)cccc12` [Compound 253], the pIC50 was below 6.30.

Regarding `CC(C)c1noc(/C=C/C(=O)N2CCN(c3nc(OC[C@]45CCCN4C[C@H](F)C5)nc4c(F)c(-c5cccc6ccc(F)c(Cl)c56)ncc34)C[C@@H]2CC#N)n1` [Compound 133], the pIC50 was 7.00 to 8.00.

As for `N#CC[C@H]1CN(c2nc(OC[C@@]34CCCN3C[C@H](F)C4)nc3c(F)c(-c4cccc5ccc(F)c(F)c45)ncc23)CCN1C(=O)/C=C/CN1CCn2ccnc2C1` [Compound 264], the pIC50 was 6.30 to 7.00.

In the case of `N#CC[C@H]1CN(c2nc(OC[C@@]34CCCN3C[C@H](F)C4)nc3c(F)c(-c4cccc5cccc(Cl)c45)ncc23)CCN1C(=O)/C=C/CN1CCn2ncnc2C1` [Compound 265], the pIC50 was 6.30 to 7.00.

As to `N#CC[C@H]1CN(c2nc(OC[C@@]34CCCN3C[C@H](F)C4)nc3c(F)c(-c4cccc5cccc(F)c45)ncc23)CCN1C(=O)/C=C/CN1C2COCC1C2` [Compound 248], the pIC50 is 7.00 to 8.00.

Consider `Cc1c(F)ccc2cccc(-c3ncc4c(N5CCN(C(=O)/C=C/CN6[C@@H]7CC[C@H]6COC7)[C@@H](CC#N)C5)nc(OC[C@@]56CCCN5C[C@H](F)C6)nc4c3F)c12` [Compound 106, 2-((S)-1-((E)-4-((1R,5S)-3-oxa-8-azabicyclo[3.2.1]octan-8-yl)but-2-enoyl)-4-(8-fluoro-7-(7-fluoro-8-methylnaphthalen-1-yl)-2-(((2R,7aS)-2-fluorotetrahydro-1H-pyrrolizin-7a(5H)-yl)methoxy)pyrido[4,3-d]pyrimidin-4-yl)piperazin-2-yl)acetonitrile], for which the pIC50 was above 8.00.

With `N#CC[C@H]1CN(c2nc(OCC34CCCN3CCC4)nc3c2CCN(c2cccc4cccc(Cl)c24)C3)CCN1C(=O)/C=C/CN1CCCS1(=O)=O` [Compound 178], the pIC50 is 6.30 to 7.00.

Take `C=C(C)c1c(Cl)cccc1-c1ncc2c(N3CCN(C(=O)/C=C/CN4C5CCC4COC5)[C@@H](CC#N)C3)nc(OC[C@@]34CCCN3C[C@H](F)C4)nc2c1F` [Compound 326]: the pIC50 was above 8.00.

As for `CC(=O)N1CCN(C/C=C/C(=O)N2CCN(c3nc(OC[C@@]45CCCN4C[C@H](F)C5)nc4c(F)c(-c5cccc6cccc(Cl)c56)ncc34)C[C@@H]2CC#N)CC1` [Compound 324], the pIC50 was above 8.00.

`N#CC[C@H]1CN(c2nc(OCC34CCCN3CCC4)nc3c2CCN(c2cccc4cccc(Cl)c24)C3)CCN1C(=O)/C=C/CN1CC(F)(F)C1` [Compound 177]: the pIC50 was 7.00 to 8.00.

For `N#CC[C@H]1CN(c2nc(OCC34CCCN3CCC4)nc3c(F)c(-c4cccc5cccc(Cl)c45)ncc23)CCN1C(=O)/C=C/CN1C[C@@H]2C[C@H]1CO2` [Compound 184], the pIC50 was above 8.00.

Regarding `N#CC[C@H]1CN(c2nc(OCC34CCCN3CCC4)nc3c2CCN(c2cccc4cccc(Cl)c24)C3)CCN1C(=O)/C=C/CN1CC2CCC(C1)O2` [Compound 167], the pIC50 was above 8.00.

With `N#CC[C@H]1CN(c2nc(OC[C@@]34CCCN3C[C@H](F)C4)nc3c(F)c(-c4cccc5cccc(Cl)c45)ncc23)CCN1C(=O)/C=C/CN1CC[C@@H](OC(F)F)C1` [Compound 304], the pIC50 was above 8.00.

As to `CC1(/C=C/C(=O)N2CCN(c3nc(OCC45CCCN4CCC5)nc4c3CCN(c3cccc5cccc(Cl)c35)C4)C[C@@H]2CC#N)COC1` [Compound 116], the pIC50 was below 6.30.

With `C[C@@H]1CN(C/C=C/C(=O)N2CCN(c3nc(OCC45CCCN4CCC5)nc4c3CCN(c3cccc5cccc(Cl)c35)C4)C[C@@H]2CC#N)C[C@@H](C)O1` [Compound 197], the pIC50 is 7.00 to 8.00.

As to `N#CC[C@H]1CN(c2nc(OCC34CCCN3CCC4)nc3c2CCN(c2cccc4cccc(Cl)c24)C3)CCN1C(=O)/C=C/CCN1CCOCC1` [Compound 153], the pIC50 is 7.00 to 8.00.

For `Cn1cnc(/C=C/C(=O)N2CCN(c3nc(OC[C@@]45CCCN4C[C@H](F)C5)nc4c(F)c(-c5cccc6cccc(Cl)c56)ncc34)C[C@@H]2CC#N)c1` [Compound 42], the negative-log IC50 (pIC50) is below 6.30.

With `Cc1nccc(/C=C/C(=O)N2CCN(c3nc(OC[C@@]45CCCN4C[C@H](F)C5)nc4c(F)c(-c5n[nH]c6cccc(Cl)c56)ncc34)C[C@@H]2CC#N)n1` [Compound 230], the pIC50 is below 6.30.

Turning to `N#CC[C@H]1CN(c2nc(OC[C@@]34CCCN3C[C@H](F)C4)nc3c(F)c(-c4cccc(F)c4C4CC4)ncc23)CCN1C(=O)/C=C/CN1C2CCC1COC2` [Compound 269], the pIC50 is above 8.00.

As to `Cn1cnc(/C=C/C(=O)N2CCN(c3nc(OC[C@@]45CCCN4C[C@H](F)C5)nc4c3CCN(c3cccc5cccc(Cl)c35)C4)C[C@@H]2CC#N)n1` [Compound 43], the pIC50 is below 6.30.

In the case of `N#CC[C@H]1CN(c2nc(OC[C@@]34CCCN3C[C@H](F)C4)nc3c(F)c(-c4cccc5cccc(Cl)c45)ncc23)CCN1C(=O)/C=C/CN1CCn2ncnc2C1` [Compound 267], the pIC50 is 7.00 to 8.00.

Turning to `N#CC[C@H]1CN(c2nc(OC[C@@]34CCCN3C[C@H](F)C4)nc3c(F)c(-c4cccc5ccc(F)c(F)c45)ncc23)CCN1C(=O)/C=C/CN1CCn2ncnc2C1` [Compound 266], the pIC50 was 6.30 to 7.00.

Turning to `N#CC[C@H]1CN(c2nc(OC[C@@]34CCCN3C[C@H](F)C4)nc3c(F)c(-c4cccc5cccc(Cl)c45)ncc23)CCN1C(=O)/C=C/CN1CC[C@H](OC(F)F)C1` [Compound 303], the pIC50 is above 8.00.

Consider `CO[C@@H]1CCN(C/C=C/C(=O)N2CCN(c3nc(OC[C@@]45CCCN4C[C@H](F)C5)nc4c(F)c(-c5cccc6cccc(F)c56)ncc34)C[C@@H]2CC#N)C1` [Compound 221], for which the pIC50 was above 8.00.

For `N#CC[C@H]1CN(c2nc(OC[C@@]34CCCN3C[C@H](F)C4)nc3c(F)c(-c4cccc5ccc(F)c(F)c45)ncc23)CCN1C(=O)/C=C/CN1CCn2ccnc2C1` [Compound 263], the pIC50 is 7.00 to 8.00.

For `Cc1cc(/C=C/C(=O)N2CCN(c3nc(OC[C@@]45CCCN4C[C@H](F)C5)nc4c(F)c(-c5cccc6c(C)c(F)ccc56)ncc34)C[C@@H]2CC#N)nc(C)n1` [Compound 250], the pIC50 is 6.30 to 7.00.

On to `CC1(c2noc(/C=C/C(=O)N3CCN(c4nc(OC[C@@]56CCCN5C[C@H](F)C6)nc5c4CCN(c4cccc6cccc(Cl)c46)C5)C[C@@H]3CC#N)n2)CC1` [Compound 46], for which the pIC50 is 7.00 to 8.00.

For `C[C@H]1CN(C/C=C/C(=O)N2CCN(c3nc(OCC45CCCN4CCC5)nc4c3CCN(c3cccc5cccc(Cl)c35)C4)C[C@@H]2CC#N)C[C@H](C)O1` [Compound 198], the pIC50 is above 8.00.

Take `N#CC[C@H]1CN(c2nc(OCC34CCCN3CCC4)nc3c2CCN(c2cccc4cccc(Cl)c24)C3)CCN1C(=O)/C=C/CN1CC2CC2C1` (some centres unmarked) [Compound 204]: the pIC50 is above 8.00.

Regarding `CC(C)N1CC[C@@H]1/C=C/C(=O)N1CCN(c2nc(OC[C@@]34CCCN3C[C@H](F)C4)nc3c(F)c(-c4cccc(Cl)c4C4CC4)ncc23)C[C@@H]1CC#N` [Compound 313], the negative logarithm of the IC50 (pIC50) was 6.30 to 7.00.

The values above are taken from patent publication US20250129103A1, “METHODS FOR TREATMENT OF CANCER” (Frontier Medicines Corporation, priority 2022, published 2025).
